Test results: patent US8232314B2, “Compounds that protect against sensory hair cell death” (University of Washington, priority 2005, dated 2012)
Entries after “also recorded” stand apart in the source; their conditions may differ.

Assays:
hair cells = assay: High-throughput screen of FDA approved compound library for protection against aminoglycoside-induced hair cell death; assay type: in vivo, zebrafish; conditions: library of 1040 FDA approved compounds, high-throughput assay
Description: (§1) Zebrafish eggs of the AB/Wik wild-type strain were generated and maintained until 5 days post-fertilization temporally corresponding to the developmental maturation of the lateral line hair cells. 5 day postfertilization larvae were prelabeled with the fluorescent dyes FM 1-43, 3 μM (30 sec), and Yo-Pro-1, 2 μM (30 min) to identify the hair cells. Larvae were arrayed into 96 well plates containing embryo media. Synthetic small molecules from the Chembridge Corporation, San Diego, were transferred into the wells for a final concentration of 10 μM (0.05% DMSO). Following a one hour exposure to the compounds fish were treated with neomycin for an additional hour. Larvae were then analyzed in vivo with an epifluorescent Zeiss Axiovert 200M microscope with automated stage and a 40× objective to determine hair cell viability following neomycin exposure.
A library of 1040 FDA approved compounds (NINDS Custom Collection II, Microsource, Inc.) were screened using a high-throughput assay.

[1] = system: lateral line hair cells of zebrafish; assay: Protection against cisplatin-induced lateral line hair cell death; assay type: in vivo, zebrafish (Danio rerio); conditions: for protective against toxic effects of cisplatin on hair cells (identified by screening): exemplified platinum coordination complex (cisplatin)
Description: (§2) Larvae were placed in a transfer device fashioned from a 50 ml conical tube with one end cut off and a mesh cover at the bottom. FM 1-43 (n-(3-triethylammoniumpropyl)-4-(4-dibutylamino]-styryl)pyridinium dibromide; Molecular Probes, Eugene, Oreg.) labeling of lateral line neuromasts was achieved by immersing free swimming larvae in 3 μM FM 1-43 in embryo medium for 30 seconds followed by 3 rinses in embryo medium. Using this procedure FM 1-43 is restricted to hair cells in neuromasts (Seiler and Nicolson, J Neurobiol (1999) 41:424-34). Yo-Pro-1 (Molecular Probes, Eugene, Oreg.) labeling of hair cell nuclei in lateral line neuromasts was achieved using a similar technique, incubating larvae in 2 μM Yo-Pro-1 in embryo medium for 30 minutes followed by 3 rinses. Using this procedure only the nuclei of hair cells are labeled.
Cisplatin from a 200 mM stock solution in DMSO (Sigma) was diluted in embryo medium to final concentrations of 300 μM, 500 μM, and 1 mM (0.05% DMSO) in each well of a six-well culture plate. Following vital dye staining live free-swimming five dpf larvae were transferred from control (neomycin-free) embryo medium to cisplatin-containing medium and incubated for 3 h.
To determine if compound F5 is protective against the otoxic effects of cisplatin, larvae were pretreated with compound F5 10 μm for 1 hour, exposed the larvae to 0, 300 μM, 500 μM and 1 mM of cisplatin for 3 hours, counted hair cells and compared to untreated controls.

[2] = system: lateral line hair cells of zebrafish; assay: Protection of zebrafish lateral line hair cells against neomycin-induced hair cell death; assay type: in vivo, zebrafish (Danio rerio); parameters: protection of hair cells from neomycin induced hair cell death in the small molecule screen: dose or concentration left out as unconfirmed; conditions: for protective against toxic effects of neomycin on hair cells (identified by screening): exemplified aminoglycoside (neomycin); for protection of hair cells from neomycin induced hair cell death in the small molecule screen: 5 dpf larvae, pretreated with compound at 10 μm, exposed to neomycin, hair cells evaluated after 1 hour; for long lasting protection, hair cell counts (FM 1-43) after neomycin: 200 μm neomycin, 24 hours post treatment; for protective effect against neomycin (dose finding): pretreated at 0-200 μM compound, neomycin 200 μM, compared to controls
Description: Zebrafish embryos were produced by paired matings of adult fish maintained at 28.5° C. in the University of Washington zebrafish facility. Beginning at 4 days post fertilization (dpf), larvae were fed live paramecia. Larvae were maintained at a density of 50 per 100 mm^2 petri dish in embryo medium (1 mM MgSO4, 120 μM KH2PO4, 74 μM Na2HPO4, 1 mM CaCl2, 500 μM KCl, […], and 500 μM NaHCO3 in dH2O) in a tissue incubator at 28.5° C. All animal procedures were approved by the University of Washington institutional Animal Care and Use Committee,
as §2, §1
Neomycin sulfate from a 50 mM stock solution in dH2O (Sigma) was diluted in embryo medium to final concentrations of 25 μM, 50 μM, 100 μM, 200 μM and 400 μM in each well of a six-well culture plate. Following vital dye staining live free-swimming five dpf larvae were transferred from control (neomycin-free) embryo medium to neomycin-containing medium and incubated for 1 h. For time-lapse imaging, neomycin-containing medium was added directly to the imaging chamber.
In order to identify compounds that protect hair cells of the lateral line from the toxic effects of the aminoglycoside neomycin, 10,960 small molecules were screened. 5 dpf larvae were double labeled with the fluorescent dyes FM 1-43 and Yo-Pro-1, pretreated with the compounds at a dose of 10 μm, exposed to […], and their hair cells evaluated after 1 hour, FIG. 1.
To identify the optimal dose for evaluating the compounds' protective effects, larvae were pretreated with both compounds at 0, 1, 10, 50, 100 and 200 μM, and exposed to neomycin at 200 μM and compared to controls.
The neomycin susceptibility of larvae pretreated with 10 μM of compound F5 and controls at 0, 25, 100, 200 and 400 μm neomycin were compared.
To evaluate the protection conferred by compounds F5 and H10, hair cell counts were compared using the fluorescent dye FM 1-43 to identify hair cells in larvae pretreated with compound and controls, exposed to 200 μm neomycin after 24 hours, 48 hours and 72 hours. […] At 48 hours and beyond the protective effects of compound F5 and H10 cannot be determined as the larvae have repopulated the neuromasts with regenerated hair cells, FIG. 5.

lateral line hair cells = assay: Mechanotransduction-dependent activity of lateral line hair cells measured by FM 1-43 uptake; assay type: in vivo, zebrafish; conditions: pretreated 1 hour at 10 μm, FM 1-43 3 μM for 30 seconds
Description: To test whether compounds F5 and H10 inhibit mechanotransduction-dependent activity of lateral line hair cells, larvae were incubated in the dye FM1-43. Larvae were pretreated with each compound for 1 hour at 10 μm and exposed to FM 1-43, 3 μM, for 30 seconds. […] Neither compound F5 nor compound H10 inhibited the uptake of FM1-43, FIG. 7.

[3] = system: zebrafish lateral line hair cells; assay: Neomycin-induced hair cell death of zebrafish lateral line hair cells; assay type: in vivo; conditions: 5 dpf larvae, 1 hour exposure to 200 μM, FM 1-43 and Yo-Pro-1 labeling
Description: FIGS. 1A and 1B illustrate labeling and neomycin-induced hair cell death of zebrafish lateral line hair cells. FIG. 1A depicts 5 days post fertilization (dpf) larvae hair cells labeled with FM 1-43 (red) to identify the cytoplasm of hair cells and Yo-Pro-1 (green) labeling the nucleus. […] Cytoplasmic (red) and nuclear fragments (green) are visible in FIG. 1B.
as §2
Neomycin sulfate from a 50 mM stock solution in dH2O (Sigma) was diluted in embryo medium to final concentrations of 25 μM, 50 μM, 100 μM, 200 μM and 400 μM in each well of a six-well culture plate. […]

| Compound | protection against aminoglycoside-induced hair cell death (screen hit) (hair cells) | protective against toxic effects of cisplatin on hair cells (identified by screening) [1] | protective against toxic effects of neomycin on hair cells (identified by screening) [2] | also measured |
| --- | --- | --- | --- | --- |
| Nc1c2c(nc3ccccc13)CCCC2 [9-amino-1,2,3,4-tetrahydroacridine] | protect against aminoglycoside-induced hair cell death | – | – | – |
| COc1ccccc1OCCNCC(O)COc1cccc2[nH]c3ccccc3c12 (centres unmarked) [Carvedilol] | protect against aminoglycoside-induced hair cell death | – | – | – |
| Cc1cccc(C(=O)NC(NC(=S)Nc2sc3c(c2C(N)=O)CCCC3)C(Cl)(Cl)Cl)c1 (centres unmarked) [Compound A, 2-{{({2,2,2-trichloro-1-[(3-methylbenzoyl)amino]ethyl}amino)carbonothioyl]amino}-4,5,6,7-tetrahydro-1-benzothiophene-3-carboxamide] | – | protective | protective | – |
| NC(=O)c1c(NC(=O)Nc2ccc(Cl)cc2)sc2c1CCCC2 [Compound B, 2-({[(4-chlorophenyl)amino]carbonyl}amino)-4,5,6,7-tetrahydro-1-benzothiophene-3-carboxamide] | – | protective | protective | – |
| NC(=O)c1c(NC(=O)c2ccc(Cl)c([N+](=O)[O-])c2)sc2c1CCCC2 [Compound C, 2-[(4-chloro-3-nitrobenzoyl)amino]-4,5,6,7-tetrahydro-1-benzothiophene-3-carboxamide] | – | protective | protective | – |
| NC(=O)c1c(NC(=O)CN2CCCCC2)sc2c1CCCC2 [Compound D, 2-[(1-piperidinylacetyl)amino]-4,5,6,7-tetrahydro-1-benzothiophene-3-carboxamide] | – | protective | protective | – |
| CCN1CCc2c(sc(NC(=O)Nc3ccc(Cl)cc3)c2C(N)=O)C1 [Compound F5, 2-({[(4-chlorophenyl)amino]carbonyl}amino)-6-ethyl-4,5,6,7-tetrahydrothieno[2,3-c]pyridine-3-carboxamide] | – | protective | protective | protection against cisplatin induced hair cell death (hair cell counts) ([1]; pretreated 10 μm for 1 hour, 0, 300 μM, 500 μM and 1 mM cisplatin for 3 hours): significant protection against cisplatin induced hair cell death; also recorded: protective against cisplatin-induced lateral Sine hair cell death; neomycin susceptibility of pretreated larvae versus controls ([2]; 10 μM compound pretreatment, 0, 25, 100, 200 and 400 μm neomycin): less susceptible to neomycin than controls; also recorded: protects lateral line hair cells against neomycin; protection of hair cells from neomycin induced hair cell death in the small molecule screen [2]: protect hair cells from neomycin induced hair cell death; long lasting protection, hair cell counts (FM 1-43) after neomycin [2]: Significant protection; also recorded: protective through 24 hours post neomycin treatment; protective effect against neomycin (dose finding) [2]: protective against neomycin; inhibition of FM 1-43 uptake (mechanotransduction-dependent activity) (lateral line hair cells): do not inhibit mechanotransduction-dependent activity; also recorded: do not prevent the rapid uptake of FM1-43 |
| COc1ccc(C(=O)NC(NC(=S)Nc2sc3c(c2C(N)=O)CCCC3)C(Cl)(Cl)Cl)cc1 (centres unmarked) [Compound H10, 2-{[({2,2,2-trichloro-1-[(4-methoxybenzoyl)amino]ethyl}amino)carbonothioyl]amino}-4,5,6,7-tetrahydro-1-benzothiophene-3-carboxamide] | – | protective | protective | protection of hair cells from neomycin induced hair cell death in the small molecule screen [2]: protect hair cells from neomycin induced hair cell death; long lasting protection, hair cell counts (FM 1-43) after neomycin [2]: Significant protection; also recorded: protective through 24 hours post neomycin treatment; optimal protective dose against 200 μM neomycin ([2]; larvae pretreated at 0, 1, 10, 50, 100 and 200 μM compound, 200 μM neomycin): 1 µM; protective effect against neomycin (dose finding) [2]: protective against neomycin; inhibition of FM 1-43 uptake (mechanotransduction-dependent activity) (lateral line hair cells): do not inhibit mechanotransduction-dependent activity; also recorded: do not prevent the rapid uptake of FM1-43 |
| CCN(CC)CCOC(=O)C(c1ccccc1)C1CCCCC1 (centres unmarked) [Drofenine] | protect against aminoglycoside-induced hair cell death | – | – | – |
| NC(N)=NC(=O)c1nc(Cl)c(N2CCCCCC2)nc1N [N,N-hexamethyleneamiloride] | protect against aminoglycoside-induced hair cell death | – | – | – |
| CC(COc1ccccc1)N(CCCl)Cc1ccccc1 (centres unmarked) [Phenoxybenzamine] | protect against aminoglycoside-induced hair cell death | – | – | – |
| neomycin | – | – | – | hair cell death after neomycin exposure [3]: undergo apoptotic death |
